Data set [1] concerns the target T1, Prostate-specific antigen (Homo sapiens, UniProt P07288).
T1 sequence (P07288 whole entry): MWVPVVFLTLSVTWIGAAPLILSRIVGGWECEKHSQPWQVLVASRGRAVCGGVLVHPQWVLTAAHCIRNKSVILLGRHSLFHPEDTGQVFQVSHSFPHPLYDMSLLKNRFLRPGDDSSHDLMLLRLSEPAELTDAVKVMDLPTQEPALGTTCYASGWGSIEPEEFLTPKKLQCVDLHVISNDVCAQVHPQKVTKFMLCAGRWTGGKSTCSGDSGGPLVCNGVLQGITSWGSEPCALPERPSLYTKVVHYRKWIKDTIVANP
As to the kind of experiment: Prodrug activation assessed as PSA (unknown origin)-mediated digestion assessed as half life at 1/100 enzyme-compound molar ratio by HPLC analysis.

Data set [2] deals with T1, Prostate-specific antigen. As to the kind of experiment: Prodrug activation assessed as PSA (unknown origin)-mediated digestion assessed as glutaryl-Hyp-Ala-Ser-Chg-Gln-OH level by LC-MS analysis.
The target in data set [3] is T2, Prostate-specific antigen (PSA) (Homo sapiens, UniProt P07288).
T2 sequence (P07288 whole entry): T1 sequence (P07288 whole entry)
Kind of data set: Drug metabolism assessed as PSA (unknown origin)-mediated digestion assessed as compound remaining after 4 hrs by HPLC analysis. Format: ADME. The conditions noted are these: PSA (prostate-specific antigen) enzyme, read-out: Drug metabolism.

Data set [4] concerns the target T2, Prostate-specific antigen (PSA). Kind of data set: Drug metabolism assessed as PSA (unknown origin)-mediated digestion assessed as compound remaining after 50 hrs by HPLC analysis. Format: ADME. The conditions noted are these: PSA (prostate-specific antigen) enzyme, read-out: Drug metabolism.

Numbered stars: 1 amine (or outer) side, 2 acyl side, 3 side chain; on linkers, the order of the positions; unused ones are H or OH. Square brackets hold non-standard residues; d marks the D form. Peptide text beside a SMILES is read from it. * marks the point of attachment. Doxorubicin(3'-N) = COc1cccc2c1C(=O)c1c(O)c3c(c(O)c1C2=O)C[C@@](O)(C(=O)CO)C[C@@H]3O[C@H]1C[C@H](N*)[C@H](O)[C@H](C)O1; X1 = O=P1(N(CCCl)CCCl)N[C@@H](N*)CCO1; Glutaryl = O=C(CCCC(=O)[*:2])[*:1]; Hyp = O=C(O)[C@@H]1C[C@@H](O)CN1; Chg = N[C@H](C(=O)O)C1CCCCC1; Suc = O=C(CCC(=O)[*:2])[*:1]

For `CC(C)C[C@H](NC(=O)[C@H](CCCCN)NC(=O)[C@H](CO)NC(=O)[C@H](CO)NC(=O)[C@H](Cc1cnc[nH]1)NC(=O)CCC(=O)O)C(=O)N[C@@H](CCC(N)=O)C(=O)N[C@H]1CCOP(=O)(N(CCCl)CCCl)N1` (some centres not stated) (Suc-HSSKLQ-X1), the t1/2 in data set [1] came out at 6.5 h. Turning to `COc1cccc2c1C(=O)c1c(O)c3c(c(O)c1C2=O)C[C@@](O)(C(=O)CO)C[C@@H]3O[C@H]1C[C@H](NC(=O)[C@H](CC(C)C)NC(=O)[C@H](CO)NC(=O)[C@H](CCC(N)=O)NC(=O)[C@@H](NC(=O)[C@H](CO)NC(=O)[C@H](C)NC(=O)[C@@H]2C[C@@H](O)CN2C(=O)CCCC(=O)O)C2CCCCC2)[C@H](O)[C@H](C)O1` [L-377202] (Glutaryl-[Hyp]AS[Chg]QSL-{Doxorubicin(3'-N)}), in data set [1], the t1/2 worked out at 0.5 h. Take `C[C@H](NC(=O)[C@@H]1C[C@@H](O)CN1C(=O)CCCC(=O)O)C(=O)N[C@@H](CO)C(=O)N[C@H](C(=O)N[C@@H](CCC(N)=O)C(=O)N[C@H]1CCOP(=O)(N(CCCl)CCCl)N1)C1CCCCC1` (some centres not stated) (Glutaryl-[Hyp]AS[Chg]Q-X1): the Drug metabolism entry in data set [2] is “Active”. Besides, the remaining at 4 h in data set [3] was under 10%. Besides, the t1/2 in data set [1] was 0.917 h.

Turning to `CC(C)C[C@H](NC(=O)[C@H](CCCCN)NC(=O)[C@H](CO)NC(=O)CCC(=O)O)C(=O)N[C@@H](CCC(N)=O)C(=O)N[C@H]1CCOP(=O)(N(CCCl)CCCl)N1` (some centres not stated) (Suc-SKLQ-X1), the remaining at 50 h in data set [4] was under 10%. Besides, in data set [1], the t1/2 stood at 12 h.

The values are drawn from ChEMBL document CHEMBL3091437, “Peptide conjugates of 4-aminocyclophosphamide as prodrugs of phosphoramide mustard for selective activation by prostate-specific antigen (PSA)” (Bioorg Med Chem, 2013).
